Experimental data: patent US7820196B2, “Physiologically active agents containing vicinal dithioglycols and use thereof in various branches of economy” (priority 1999, dated 2010)
“And” between values parts separate entries of the source, which are not always exact repeats. Equal entries are not always repeated.

What was measured:
broilers = test: Example 5: broilers fed basic ration plus Unithiol; format: in vivo
Method: A full-ration mixed-fodder was checked for the absence of pathogens and used for feeding broilers. Thirty 15 days broilers were divided into one control and 4 experimental groups having 6 chickens each (3 male and 3 female chickens). Poultry were kept in a four-deck pen. The conditions of feeding such as the basic ration (BR) and the addition of Unithiol according to the protocol were as follows:
Experimental group 1: BR+1.3 mg of “Unithiol” per 1 kg of the body weight;
Experimental group 2: BR+1.7 mg of “Unithiol” per 1 kg of the body weight;
Experimental group 3: BR+2.1 mg of “Unithiol” per 1 kg of the body weight;
Experimental group 4: BR+2.5 mg of “Unithiol” per 1 kg of the body weight.
Feeding was performed in accordance with experimental protocol; broilers received water ad libitum; the experiment was carried out for 42 days.

[1] = test system: participants (males and females) taking 1 l dark beer every evening; test: Example 7: hangover and biochemical indices in participants taking dark beer with Unithiol or placebo; format: in vivo, human; conditions: for MDA (urine) / ALT (blood) / AST (blood) / SH-gr. (blood) / Triglycerides (blood) / Urate (blood) / Vit. A (blood) / Vit. E (blood): one value per participant
Description: The tests were held upon the offer's proposal. The Moscow scientific and practical Center for the drug prophylactic of the Moscow health Administration was taken as the base for it.
The experiment was schemed as follows. The participants were taken from males and females of different age groups and different alcohol intake habits.
The control group remained as an intact one.
The experimental group—1—took in 1 l. of a dark beer of the “Klinskoie” type every evening from the X^th day till the X+13th day. That group took in the placebo every morning from the X+1th day till X+7th day, and every morning it took in from the X+8th day till X+14th day the solution of 250 mg of Unithiol in 100 g of drinking water.
The experimental group—2—took in 1 l. of a dark beer of the “Klinskoie” type every evening from the X^th day till the X+13th day. That group took in the solution of 250 mg of Unithiol in 100 g of drinking water every morning from the X+1th day till X+7th day, and every morning it took in the placebo from the X+8th day till X+14th day.
The measurements of the biochemical indices were taken in the mornings in every group, and in the control groups—after 30 minutes of placebo or Unithiol intake.
The following indices of the level of the per oxidation of lipids and the condition of the liver and the brain tissues were measured: • MDA—malondialdehyde • Triglycerides • Endogenous antioxidants: • Vit. A—vitamin A • Vit. E—vitamin E • Urate—serum urate • SH-gr.—SH-groups • Aminotransferase: • ALT—lanine aminotransferase • AST—aspartate aminotransferase

[2] = about 1.7 mg Unithiol per 1 kg of body weight in ration
[3] = day X+7, Experimental group 2: beer every evening, 250 mg Unithiol mornings X+1 to X+7
[4] = day X+14, Experimental group 1: beer every evening, 250 mg Unithiol mornings X+8 to X+14

O=S(=O)([O-])CC(S)CS.[Na+] (stereo not shown) [Unithiol, Sodium 2,3-Dimercaptopropane sulfonate]
feathering condition (broilers; Unithiol in ration): Feathering condition improvement | fodder consumption (broilers; Unithiol in ration): increased fodder consumption | average weight gain (broilers; [2]): up to 35.8 g per day | gain rate, % from that in the control group (broilers; [2]): 145.9% | growth stimulating effect (broilers; about 1.7 mg per 1 kg of body weight in ration, beginning from the 15th day): growth stimulating effect | level of cadmium, zinc, lead and copper in meat and liver, lower than control group (broilers; experimental groups, 1.3-2.5 mg Unithiol per kg body weight): about 1.5 times | time to full hangover alleviating after intake ([1]; 250 mg Unithiol in 100 g drinking water in the morning after 1 l dark beer in the evening): 5 to 10 min | toxic activity of ethanol and products of its incomplete oxidation (carbonyl compounds) to liver and brain tissue ([1]; Unithiol intake during alcohol intake): reduce almost to the whole extent | MDA (urine) ([1]; day X+2, Experimental group 2: 1 l dark beer every evening, 250 mg Unithiol mornings X+1 to X+7): 0.62 nM/ml and 0.45 nM/ml (2×) and 0.47 nM/ml and 0.43 nM/ml and 0.99 nM/ml and 0.67 nM/ml | MDA (urine) ([1]; day X+4, Experimental group 2: beer every evening, 250 mg Unithiol mornings X+1 to X+7): 0.60 nM/ml and 0.58 nM/ml (2×) and 0.42 nM/ml and 0.51 nM/ml and 0.88 nM/ml and 0.53 nM/ml | ALT (blood) [1, 3]: 61 nmol (sec. 1) and 50 nmol (sec. 1) (2×) and 37 nmol (sec. 1) and 46 nmol (sec. 1) and 190 nmol (sec. 1) and 39 nmol (sec. 1) | AST (blood) [1, 3]: 48 nmol (sec. 1) and 46 nmol (sec. 1) and 31 nmol (sec. 1) and 41 nmol (sec. 1) and 37 nmol (sec. 1) and 172 nmol (sec. 1) and 30 nmol (sec. 1) | MDA (urine) [1, 3]: 0.55 nM/ml and 0.43 nM/ml and 0.49 nM/ml and 0.42 nM/ml and 0.38 nM/ml and 0.89 nM/ml and 0.56 nM/ml | SH-gr. (blood) [1, 3]: 378 MKM and 389 MKM (2×) and 383 MKM and 380 MKM and 197 MKM and 354 MKM | Triglycerides (blood) [1, 3]: 0.80 mmoi/l and 0.59 mmoi/l and 0.44 mmoi/l and 0.43 mmoi/l and 0.41 mmoi/l and 1.73 mmoi/l and 0.42 mmoi/l | Urate (blood) [1, 3]: 268 MKM and 267 MKM and 311 MKM and 295 MKM and 280 MKM and 208 MKM and 279 MKM | Vit. A (blood) [1, 3]: 1.9 µg/mL and 2.2 µg/mL and 2.8 µg/mL and 2.3 µg/mL and 2.7 µg/mL and 0.6 µg/mL and 1.6 µg/mL | Vit. E (blood) [1, 3]: 2.6 µg/mL and 3.3 µg/mL and 3.1 µg/mL and 3.8 µg/mL and 3.2 µg/mL and 1.0 µg/mL and 2.4 µg/mL | MDA (urine) ([1]; day X+9, Experimental group 1: 1 l dark beer every evening, placebo mornings X+1 to X+7, 250 mg Unithiol mornings X+8 to X+14): 0.7 nM/ml and 1.0 nM/ml and 0.90 nM/ml and 0.82 nM/ml | MDA (urine) ([1]; day X+11, Experimental group 1: beer every evening, 250 mg Unithiol mornings X+8 to X+14): 0.63 nM/ml and 0.80 nM/ml and 0.72 nM/ml and 0.54 nM/ml | ALT (blood) [1, 4]: 52 nmol (sec. 1) and 58 nmol (sec. 1) and 45 nmol (sec. 1) and 42 nmol (sec. 1) | AST (blood) [1, 4]: 41 nmol (sec. 1) and 50 nmol (sec. 1) and 40 nmol (sec. 1) and 35 nmol (sec. 1) | MDA (urine) [1, 4]: 0.69 nM/ml and 0.82 nM/ml and 0.64 nM/ml and 0.53 nM/ml | SH-gr. (blood) [1, 4]: 384 MKM and 375 MKM and 389 MKM and 392 MKM | Triglycerides (blood) [1, 4]: 0.65 mmoi/l and 0.59 mmoi/l and 0.71 mmoi/l and 0.64 mmoi/l | Urate (blood) [1, 4]: 265 MKM and 253 MKM and 285 MKM and 279 MKM | Vit. A (blood) [1, 4]: 1.4 mcg/ml (2×) and 1.2 mcg/ml and 2.1 mcg/ml | Vit. E (blood) [1, 4]: 2.8 µg/mL and 2.1 µg/mL and 2.2 µg/mL and 1.7 µg/mL
